Values after ≈ are worked out from the molar mass of the structure shown. Read-outs that look alike come from different tables or passages of the source.
Tests used:
[1] = system: E. coli GC 2236; test: MIC, broth microdilution; conditions: Escherichia coli, GC2236, E. coli GC 2236
Procedure: Antimicrobial susceptibility testing. The in vitro activities of the antibiotics are determined by the broth microdilution method as recommended by the National Committee for Clinical Laboratory Standards (NCCLS) (1). Mueller-Hinton II broth (MHBII)(BBL Cockeysville, Md.) is the medium employed in the testing procedures. Microtiter plates containing serial dilutions of each antimicrobial agent are inoculated with each organism to yield the appropriate density (10^5 CFU/ml) in a 100 μl final volume. The plates are incubated for 18-22 hours at 35° C. in ambient air. […] Standard Pharmacological Test Procedures
Presented in Tables I-XIII are representative compounds of Formula I which were evaluated against a panel of 40 selected gram-positive and gram-negative bacteria strains by pre-incubation in water, mouse serum or human serum. Representative compounds were first incubated in mouse serum for an hour prior to the in vitro testing against a panel of selected gram-positive and gram-negative bacteria strains. All compounds were also pre-incubated in water for an hour prior to testing as control. Representative compounds of Formula I were incubated in human serum prior to MIC determination.

[2] = system: E. coli GC 2232; test: MIC, broth microdilution; conditions: Escherichia coli, GC2232, E. coli GC 2232
[3] = system: E. coli GC 2234; test: MIC, broth microdilution; conditions: Escherichia coli, GC2234, E. coli GC 2234
[4] = system: E. coli GC 2271; test: MIC, broth microdilution; conditions: Escherichia coli, GC2271, E. coli GC 2271
[5] = system: E. coli GC 2272; test: MIC, broth microdilution; conditions: Escherichia coli, GC2272, E. coli GC 2272
[6] = system: E. coli GC 4559; test: MIC, broth microdilution; conditions: Escherichia coli, GC4559, E. coli GC 4559
[7] = system: E. coli GC 3226; test: MIC, broth microdilution; conditions: Escherichia coli, GC3226, E. coli GC 3226
[8] = system: E. coli GC 2203; test: MIC, broth microdilution; conditions: Escherichia coli, GC2203, E. coli GC 2203
[9] = system: P. aeruginosa GC 2214; test: MIC, broth microdilution; conditions: Pseudomonas aeruginosa, GC2214, P. aeruginosa GC 2214
[10] = system: S. aureus GC 1131; test: MIC, broth microdilution; conditions: Staphylococcus aureus, GC1131, S. aureus GC 1131
[11] = system: S. aureus GC 6335; test: MIC, broth microdilution; conditions: Staphylococcus aureus, GC6335, S. aureus GC 6335
[12] = system: S. epidermidis GC 4935; test: MIC, broth microdilution; conditions: Staphylococcus epidermidis, GC4935, S. epidermidis GC 4935
[13] = system: E. faecalis GC 4555; test: MIC, broth microdilution; conditions: Enterococcus faecalis, GC4555, E. faecalis GC 4555
[14] = system: E. faecalis GC 2265; test: MIC, broth microdilution; conditions: Enterococcus faecalis, GC2265, E. faecalis GC 2265
[15] = system: E. faecalis GC 2267; test: MIC, broth microdilution; conditions: Enterococcus faecalis, GC2267, E. faecalis GC 2267
[16] = system: S. pneumoniae* GC 4465; test: MIC, broth microdilution; conditions: Streptococcus pneumoniae, S. pneumoniae* GC 4465
[17] = system: S. pneumoniae+ GC 4465; test: MIC, broth microdilution; conditions: Streptococcus pneumoniae, S. pneumoniae+ GC 4465
[18] = system: S. pyogenes GC 4563; test: MIC, broth microdilution; conditions: Streptococcus pyogenes, GC4563, S. pyogenes GC 4563
[19] = system: S. agalactiae GC 4564; test: MIC, broth microdilution; conditions: Streptococcus agalactiae, GC4564, S. agalactiae GC 4564
[20] = system: Staph. aureus Smith; test: In vivo activity (oral, iv; ED50) against Staph. aureus Smith in mice
Procedure: Representative examples of compounds of Formula I were tested for the oral efficacy using S. aureus Smith in mice.

**Q.** What does the source list for CCCCN(CC(=O)Nc1cc(N(C)C)c2c(c1O)C(=O)C1=C(O)[C@]3(O)C(=O)C(C(N)=O)=C(O)[C@@H](N(C)C)C3CC1C2)C(=O)OCOC(=O)C(C)C (stereo partly drawn) [Example 1, ({[(2-{[(7S,10aS)-9-(aminocarbonyl)-4,7-bis(dimethylamino)-1,8,10a,11-tetrahydroxy-10,12-dioxo-5,5a,6,6a,7,10,10a,12-octahydrotetracen-2-yl]amino}-2-oxoethyl)(butyl)amino]carbonyl}oxy)methyl 2-methylpropanoate]?
**A.** MIC ([1]; Mouse Serum pre-incubation): 1 µg/mL (≈ 1.37 µM); MIC ([1]; Water pre-incubation): 16 µg/mL (≈ 21.9 µM); MIC ([2]; Mouse Serum pre-incubation): 0.5 µg/mL (≈ 0.685 µM); MIC ([2]; Water pre-incubation): 16 µg/mL (≈ 21.9 µM); MIC ([3]; Mouse Serum pre-incubation): 0.5 µg/mL (≈ 0.685 µM); MIC ([3]; Water pre-incubation): 16 µg/mL (≈ 21.9 µM); MIC ([4]; Mouse Serum pre-incubation): 0.5 µg/mL (≈ 0.685 µM); MIC ([4]; Water pre-incubation): 16 µg/mL (≈ 21.9 µM); MIC ([5]; Mouse Serum pre-incubation): 1 µg/mL (≈ 1.37 µM); MIC ([5]; Water pre-incubation): 16 µg/mL (≈ 21.9 µM); MIC ([6]; Mouse Serum pre-incubation): 1 µg/mL (≈ 1.37 µM); MIC ([6]; Water pre-incubation): 32 µg/mL (≈ 43.8 µM); MIC ([7]; Mouse Serum pre-incubation): 1 µg/mL (≈ 1.37 µM); MIC ([7]; Water pre-incubation): 32 µg/mL (≈ 43.8 µM); MIC ([8]; Mouse Serum pre-incubation): 0.5 µg/mL (≈ 0.685 µM); MIC ([8]; Water pre-incubation): 16 µg/mL (≈ 21.9 µM); MIC ([9]; Mouse Serum pre-incubation): 32 µg/mL (≈ 43.8 µM); MIC ([9]; Water pre-incubation): > 64 µg/mL; MIC ([10]; Mouse Serum pre-incubation): 1 µg/mL (≈ 1.37 µM); MIC ([10]; Water pre-incubation): 4 µg/mL (≈ 5.48 µM); MIC ([11]; Mouse Serum pre-incubation): 2 µg/mL (≈ 2.74 µM); MIC ([11]; Water pre-incubation): 4 µg/mL (≈ 5.48 µM); MIC ([12]; Mouse Serum pre-incubation): 2 µg/mL (≈ 2.74 µM); MIC ([12]; Water pre-incubation): 8 µg/mL (≈ 11 µM); MIC ([13]; Mouse Serum pre-incubation): 1 µg/mL (≈ 1.37 µM); MIC ([13]; Water pre-incubation): 4 µg/mL (≈ 5.48 µM); MIC ([14]; Mouse Serum pre-incubation): 1 µg/mL (≈ 1.37 µM); MIC ([14]; Water pre-incubation): 4 µg/mL (≈ 5.48 µM); MIC ([15]; Mouse Serum pre-incubation): 2 µg/mL (≈ 2.74 µM); MIC ([15]; Water pre-incubation): 8 µg/mL (≈ 11 µM); MIC ([16]; Mouse Serum pre-incubation): 0.5 µg/mL (≈ 0.685 µM); MIC ([16]; Water pre-incubation): 0.25 µg/mL (≈ 0.343 µM); MIC ([17]; Mouse Serum pre-incubation): 2 µg/mL (≈ 2.74 µM); MIC ([17]; Water pre-incubation): 2 µg/mL (≈ 2.74 µM); MIC ([18]; Mouse Serum pre-incubation): 0.25 µg/mL (≈ 0.343 µM); MIC ([18]; Water pre-incubation): 0.5 µg/mL (≈ 0.685 µM); MIC ([19]; Mouse Serum pre-incubation): 0.5 µg/mL (≈ 0.685 µM); MIC ([19]; Water pre-incubation): 1 µg/mL (≈ 1.37 µM); ED50 ([20]; Staphylococcus aureus, in Mus musculus, iv, read-out: ED50 SIV (Staph aureus Smith)): 0.6 mg/kg; ED50 ([20]; Staphylococcus aureus, in Mus musculus, po, read-out: ED50 SOD (Staph aureus Smith)): 4.7 mg/kg

**Q.** What does the source list for CCCCN(CC(=O)Nc1cc(N(C)C)c2c(c1O)C(=O)C1=C(O)[C@]3(O)C(=O)C(C(N)=O)=C(O)[C@@H](N(C)C)C3CC1C2)C(=O)OCOC(=O)c1ccc(OC)cc1 (stereo partly drawn) [Example 2, ({[(2-{[(7S,10aS)-9-(aminocarbonyl)-4,7-bis(dimethylamino)-1,8,10a,11-tetrahydroxy-10,12-dioxo-5,5a,6,6a,7,10,10a,12-octahydrotetracen-2-yl]amino}-2-oxoethyl)(butyl)amino]carbonyl}oxy)methyl 4-methoxybenzoate]?
**A.** MIC ([1]; Mouse Serum pre-incubation): 4 µg/mL (≈ 5.04 µM); MIC ([1]; Water pre-incubation): 32 µg/mL (≈ 40.3 µM); MIC ([2]; Mouse Serum pre-incubation): 2 µg/mL (≈ 2.52 µM); MIC ([2]; Water pre-incubation): 64 µg/mL (≈ 80.6 µM); MIC ([3]; Mouse Serum pre-incubation): 1 µg/mL (≈ 1.26 µM); MIC ([3]; Water pre-incubation): 64 µg/mL (≈ 80.6 µM); MIC ([4]; Mouse Serum pre-incubation): 1 µg/mL (≈ 1.26 µM); MIC ([4]; Water pre-incubation): 64 µg/mL (≈ 80.6 µM); MIC ([5]; Mouse Serum pre-incubation): 1 µg/mL (≈ 1.26 µM); MIC ([5]; Water pre-incubation): 64 µg/mL (≈ 80.6 µM); MIC ([6]; Mouse Serum pre-incubation): 1 µg/mL (≈ 1.26 µM); MIC ([6]; Water pre-incubation): 64 µg/mL (≈ 80.6 µM); MIC ([7]; Mouse Serum pre-incubation): 4 µg/mL (≈ 5.04 µM); MIC ([7]; Water pre-incubation): 64 µg/mL (≈ 80.6 µM); MIC ([8]; Mouse Serum pre-incubation): 2 µg/mL (≈ 2.52 µM); MIC ([8]; Water pre-incubation): 64 µg/mL (≈ 80.6 µM); MIC ([9]; Mouse Serum pre-incubation): > 64 µg/mL; MIC ([9]; Water pre-incubation): > 64 µg/mL; MIC ([10]; Mouse Serum pre-incubation): 2 µg/mL (≈ 2.52 µM); MIC ([10]; Water pre-incubation): 4 µg/mL (≈ 5.04 µM); MIC ([11]; Mouse Serum pre-incubation): 8 µg/mL (≈ 10.1 µM); MIC ([11]; Water pre-incubation): 8 µg/mL (≈ 10.1 µM); MIC ([12]; Mouse Serum pre-incubation): 8 µg/mL (≈ 10.1 µM); MIC ([12]; Water pre-incubation): 8 µg/mL (≈ 10.1 µM); MIC ([13]; Mouse Serum pre-incubation): 2 µg/mL (≈ 2.52 µM); MIC ([13]; Water pre-incubation): 4 µg/mL (≈ 5.04 µM); MIC ([14]; Mouse Serum pre-incubation): 4 µg/mL (≈ 5.04 µM); MIC ([14]; Water pre-incubation): 8 µg/mL (≈ 10.1 µM); MIC ([15]; Mouse Serum pre-incubation): 4 µg/mL (≈ 5.04 µM); MIC ([15]; Water pre-incubation): 4 µg/mL (≈ 5.04 µM); MIC ([16]; Mouse Serum pre-incubation): 0.5 µg/mL (≈ 0.63 µM); MIC ([16]; Water pre-incubation): 0.25 µg/mL (≈ 0.315 µM); MIC ([17]; Mouse Serum pre-incubation): 2 µg/mL (≈ 2.52 µM); MIC ([17]; Water pre-incubation): 4 µg/mL (≈ 5.04 µM); MIC ([18]; Mouse Serum pre-incubation): 0.25 µg/mL (≈ 0.315 µM); MIC ([18]; Water pre-incubation): 0.25 µg/mL (≈ 0.315 µM); MIC ([19]; Mouse Serum pre-incubation): 2 µg/mL (≈ 2.52 µM); MIC ([19]; Water pre-incubation): 2 µg/mL (≈ 2.52 µM); ED50 ([20]; Staphylococcus aureus, in Mus musculus, po, read-out: ED50 Staph Smith SOD): 13.3 mg/kg; ED50 ([20]; iv, read-out: ED50 Staph Smith SIV): 0.71 mg/kg
